# Experimental data taken from publication PMC5573760 (Cancer Chemotherapy and Pharmacology, 2017).
# “Also recorded” adds a separate entry of the source.
# Assays:
# clinical = conditions: male, human, in vivo; for clearance: CL (total body clearance); for Tmax: t max; for half-life: t ½ (terminal half-life)
# Experimental: All subjects gave written informed consent; the study was conducted at PRA Health Sciences (Zuidlaren, The Netherlands) in accordance with the Declaration of Helsinki and was approved by an accredited institutional ethics committee (Medisch Ethische Toetsings Commissie, Assen, The Netherlands).
# Subjects remained fasting until 2-h after the end of the infusion. Volunteers stayed in-house until 14 days after the application and subsequently urine and feces were collected for 24-h on Day 16, 20, 27 and 34 if necessary, cf. below.
# Urine was collected pre-dose, at 0–12-h and 12–24 h after the start of the infusion and thereafter over 24-h intervals on Day 2 to Day 14 as well as on Day 16, 20, 27 and 34 (±1 day). Cumulative 24-h fecal samples were collected from Day 1 (day of infusion) to Day 14 and as well as on Day 16, 20, 27 and 34 (±1 day). […] The excreted radioactivity between ambulant visits during the prolongation phase of the clinical study was calculated using interpolation to get a more realistic total excretion value of all subjects (see "Pharmacokinetic analysis").
# All samples were frozen at −70 °C and analyzed within 60 days of sample collection.
# For blood/plasma ratio determination, total radioactivity in urine and feces well as data from HPLC analysis data from radioactivity measurement by liquid scintillation counting (LSC) were considered. The amount of radioactivity recovered in the excreta (A E) was related to the administered radioactive dose to establish the radioactive balance. Arithmetic means and coefficients of variation (CV) were calculated for these percentages. […] Cumulative excretion was calculated as sum of the collection intervals. The elimination of the total radioactivity in urine and feces for time-points beyond day 14 was performed by log-linear extrapolation between analyzed time-points. Amounts of radioactivity excreted in urine and feces between two ambulant visits were calculated per interpolated day by linear interpolation of log-transformed excretion data separately per matrix (lnA E(interpolated day) = Δdays × [lnA E(Visit i + 1) − lnA E(Visit i)]/[day (Visit i + 1) − day (Visit i)] + lnA E(Visit i), with A E given as amount of radioactivity excreted in matrix per day and Δdays being the difference between the calculated day and the last available visit with A E > 0). In case no feces sample was provided on an ambulant visit, this visit was neglected for interpolation. A similar approach has been described earlier. The concentration/amount for each component of each sample/time-point was calculated by multiplying the total radioactivity concentration/amount of each sample with %-area of each component obtained after off-line HPLC separation. The amount of radioactivity in urine and feces at late time-points where no component was detected was distributed in the same percentage to the component (s) present at the time-point before.
# Compartment-free analysis was performed employing WinNonlin software (version 5.3, Pharsight Certara, Princton, NJ, USA).
# Pharmacokinetic parameters were evaluated by descriptive data analysis without formal hypothesis testing by calculating either medians (t max, t last) or geometric means and %CV (remaining parameters). Excretion data (urine, feces, total) were evaluated by arithmetic means.
# [1] = Safety and tolerability assessment in healthy male volunteers; type: in vivo, human
# Source text: Physical examination, blood pressure, pulse rate, body temperature and body weight, laboratory parameters and 12-lead electrocardiogram (ECG), as well as adverse events using the common terminology criteria for adverse events (CTCAE) Version 4.03, were monitored throughout the study for safety assessment.
smiles,measurement,setting,value
"COc1c(OCCCN2CCOCC2)ccc2c1N=C(NC(=O)c1cnc(N)nc1)N1CCN=C21 [Copanlisib, copanlisib]","AUC (0–t last) of total radioactivity (%) covered by the component, average",clinical,about 84%
same,"CL (total body clearance), geometric mean (%CV)",clinical; iv,24.8 (41.3%) L/h
same,"t ½ (terminal half-life), geometric mean (%CV)",clinical; iv,52.1 (20.9%) h
same,"t ½ (terminal half-life), range",clinical; iv,40.4 to 67.5 h
same,clearance,"clinical; iv, geometric mean (%CV)",~413 mL/min
same,clearance,"clinical; iv, range",237 to 680 mL/min
same,Vd,"clinical; iv, V z (volume of distribution during terminal phase), geometric mean (%CV)",~1870 L
same,Vd,"clinical; iv, V z, range",1250 to 2450 L
same,Tmax,"clinical; iv, median",1 h
same,Tmax,"clinical; iv, range",0.5 to 1 h
same,half-life,"clinical; iv, geometric mean (%CV)",52 h
same,half-life,"clinical; iv, range",40 to 67 h
same,Adverse events related to copanlisib,"[1]; 12 mg, 6 healthy subjects",Three mild-to-moderate gastrointestinal adverse events
same,Subjects with TEAEs assessed as related to the study drug,"[1]; abdominal pain, diarrhea and nausea",2
same,Total number of gastrointestinal TEAEs,"[1]; abdominal pain, nausea, flatulence, frequent bowel movements, diarrhea",5
same,Neutrophils and leukocytes,"[1]; all 6 healthy volunteers, all above 2/3 of the lower limit for normal values",transient decrease
same,"Other laboratory values, ECG or vital signs","[1]; human, in vivo",No clinically relevant changes
same,Tolerability,"[1]; single i.v. dose of 12 mg copanlisib, 6 healthy subjects",well tolerated
same,Deaths or serious adverse events,"[1]; single i.v. dose of 12 mg, 6 healthy subjects",No death or SAEs; also recorded: without any serious adverse event
same,Volunteers with at least one treatment emergent adverse event (TEAE),"[1]; single i.v. dose of 12 mg, 6 volunteers",Three out of the 6
